From ChEMBL document CHEMBL3044921, “Synthesis, characterization, and SAR studies of new (1H-indol-3-yl)alkyl-3-(1H-indol-3-yl)propanamide derivatives as possible antimicrobial and antitubercular agents” (2013)
Values after ≈ are worked out from the molar mass of the structure shown.

Experiments:
[1] = system: Pseudomonas aeruginosa; assay: Antibacterial activity against Pseudomonas aeruginosa ATCC 27853 assessed as growth inhibition after 16 to 18 hr by serial plate dilution method; assay type: functional
[2] = system: Mycolicibacterium smegmatis; assay: Antitubercular activity against Mycobacterium smegmatis ATCC 19420 assessed as growth inhibition at 1 to 100 ug/mL after 7 days by resazurin reduction test; assay type: functional; details: ATCC 19420, 168 h
[3] = system: Klebsiella pneumoniae; assay type: functional
Description: Antibacterial activity against Klebsiella pneumoniae assessed as growth inhibition at 1.56 to 25 ug/ml after 3 to 4 days by agar well diffusion method

[4] = system: Streptococcus pyogenes; assay: Antibacterial activity against Streptococcus pyogenes assessed as growth inhibition after 16 to 18 hr by serial plate dilution method; assay type: functional
[5] = system: Mycolicibacterium fortuitum; assay: Antitubercular activity against Mycobacterium fortuitum ATCC 19542 assessed as growth inhibition at 0.3125 to 5 ug/mL after 7 days by resazurin reduction test; assay type: functional; details: ATCC 19542, 168 h
[6] = system: Candida albicans; assay: Antifungal activity against Candida albicans assessed as growth inhibition after 3 to 4 days by serial plate dilution method; assay type: functional
[7] = system: Mycobacterium tuberculosis; assay: Antitubercular activity against Mycobacterium tuberculosis H37Rv ATCC 27294 assessed as growth inhibition at 0.3125 to 5 ug/mL after 7 days by resazurin reduction test; assay type: functional; details: H37Rv ATCC 27294, 168 h
[8] = system: Streptococcus pyogenes; assay type: functional
Description: Antibacterial activity against Streptococcus pyogenes assessed as growth inhibition at 1.56 to 25 ug/ml after 3 to 4 days by agar well diffusion method

[9] = system: Talaromyces marneffei; assay: Antifungal activity against Talaromyces marneffei assessed as growth inhibition at […] to […] ug/ml after 3 to 4 days by agar well diffusion method; assay type: functional
[10] = system: Aspergillus flavus; assay: Antifungal activity against Aspergillus flavus NCIM 524 assessed as growth inhibition after 3 to 4 days by serial plate dilution method; assay type: functional
[11] = system: Aspergillus fumigatus; assay: Antifungal activity against Aspergillus fumigatus NCIM 902 assessed as growth inhibition at […] to […] ug/ml after 3 to 4 days by agar well diffusion method; assay type: functional
[12] = system: Escherichia coli; assay: Antibacterial activity against Escherichia coli […] assessed as growth inhibition after 16 to 18 hr by serial plate dilution method; assay type: functional
[13] = system: Mycolicibacterium smegmatis; assay: Antitubercular activity against Mycobacterium smegmatis ATCC 19420 assessed as growth inhibition at 0.3125 to 5 ug/mL after 7 days by resazurin reduction test; assay type: functional; details: ATCC 19420, 168 h
[14] = system: Trichophyton mentagrophytes; assay: Antifungal activity against Trichophyton mentagrophytes assessed as growth inhibition at […] to […] ug/ml after 3 to 4 days by agar well diffusion method; assay type: functional
[15] = system: Staphylococcus aureus; assay: Antibacterial activity against Staphylococcus aureus ATCC 25923 assessed as growth inhibition after 16 to 18 hr by serial plate dilution method; assay type: functional
[16] = system: Pseudomonas aeruginosa; assay type: functional, ATCC 27853
Description: Antibacterial activity against Pseudomonas aeruginosa ATCC 27853 assessed as growth inhibition at 1.56 to 25 ug/ml after 3 to 4 days by agar well diffusion method

[17] = system: Klebsiella pneumoniae; assay: Antibacterial activity against Klebsiella pneumoniae assessed as growth inhibition after 16 to 18 hr by serial plate dilution method; assay type: functional
[18] = system: Staphylococcus aureus; assay type: functional, ATCC 25923
Description: Antibacterial activity against Staphylococcus aureus ATCC 25923 assessed as growth inhibition at 1.56 to 25 ug/ml after 3 to 4 days by agar well diffusion method

[19] = system: Mycolicibacterium fortuitum; assay: Antitubercular activity against Mycobacterium fortuitum ATCC 19542 assessed as growth inhibition at 1 to 100 ug/mL after 7 days by resazurin reduction test; assay type: functional; details: ATCC 19542, 168 h
[20] = system: Escherichia coli; assay type: functional, ATCC 24922
Description: Antibacterial activity against Escherichia coli ATCC 24922 assessed as growth inhibition at 1.56 to 25 ug/ml after 3 to 4 days by agar well diffusion method

[21] = system: Trichophyton mentagrophytes; assay: Antifungal activity against Trichophyton mentagrophytes assessed as growth inhibition after 3 to 4 days by serial plate dilution method; assay type: functional
[22] = system: Aspergillus flavus; assay: Antifungal activity against Aspergillus flavus NCIM 524 assessed as growth inhibition at […] to […] ug/ml after 3 to 4 days by agar well diffusion method; assay type: functional
[23] = system: Aspergillus fumigatus; assay: Antifungal activity against Aspergillus fumigatus NCIM 902 assessed as growth inhibition after 3 to 4 days by serial plate dilution method; assay type: functional
[24] = system: Candida albicans; assay: Antifungal activity against Candida albicans assessed as growth inhibition at […] to […] ug/ml after 3 to 4 days by agar well diffusion method; assay type: functional
[25] = system: Mycobacterium tuberculosis; assay: Antitubercular activity against Mycobacterium tuberculosis H37Rv ATCC 27294 assessed as growth inhibition at 1 to 100 ug/mL after 7 days by resazurin reduction test; assay type: functional; details: for MIC: Mycobacterium tuberculosis, H37Rv ATCC 27294, 168 h
[26] = system: Talaromyces marneffei; assay: Antifungal activity against Talaromyces marneffei assessed as growth inhibition after 3 to 4 days by serial plate dilution method; assay type: functional

SMILES	MIC [1]	MIC [2]	diameter of the inhibition zone (DIZ) [3]	MIC [4]	MIC [5]	MIC [6]	MIC [7]	diameter of the inhibition zone (DIZ) [8]	diameter of the inhibition zone (DIZ) [9]	MIC [10]	diameter of the inhibition zone (DIZ) [11]	MIC [12]	MIC [13]	diameter of the inhibition zone (DIZ) [14]	MIC [15]	diameter of the inhibition zone (DIZ) [16]	MIC [17]	MIC [19]	growth inhibition (GI) [25]	MIC [25]	other results
Cn1cc(CCC(=O)NCc2c[nH]c3ccc(Cl)cc23)c2cc(Cl)ccc21	25 µg/mL (≈ 62.5 µM)	10 µg/mL (≈ 25 µM)	16 mm	6.25 µg/mL (≈ 15.6 µM)	10 µg/mL (≈ 25 µM)	6.25 µg/mL (≈ 15.6 µM)	0.625 µg/mL (≈ 1.56 µM)	16 mm	16 mm	6.25 µg/mL (≈ 15.6 µM)	16 mm	6.25 µg/mL (≈ 15.6 µM)	10 µg/mL (≈ 25 µM)	16 mm	6.25 µg/mL (≈ 15.6 µM)	<10 mm	6.25 µg/mL (≈ 15.6 µM)	10 µg/mL (≈ 25 µM)	95%	1 µg/mL (≈ 2.5 µM)	diameter of the inhibition zone (DIZ) [18]: 16 mm; diameter of the inhibition zone (DIZ) [20]: 16 mm; MIC [21]: 6.25 µg/mL (≈ 15.6 µM); diameter of the inhibition zone (DIZ) [22]: 16 mm; MIC [23]: 6.25 µg/mL (≈ 15.6 µM); diameter of the inhibition zone (DIZ) [24]: 16 mm; MIC [26]: 6.25 µg/mL (≈ 15.6 µM)
Cn1cc(CCCNC(=O)CCc2cn(C)c3ccc(Cl)cc23)c2cc(Cl)ccc21	25 µg/mL (≈ 56.5 µM)	10 µg/mL (≈ 22.6 µM)	<10 mm	25 µg/mL (≈ 56.5 µM)	–	25 µg/mL (≈ 56.5 µM)	5 µg/mL (≈ 11.3 µM)	<10 mm	<10 mm	12.5 µg/mL (≈ 28.3 µM)	11 mm	25 µg/mL (≈ 56.5 µM)	10 µg/mL (≈ 22.6 µM)	11 mm	12.5 µg/mL (≈ 28.3 µM)	<10 mm	25 µg/mL (≈ 56.5 µM)	> 100 µg/mL	<90%	10 µg/mL (≈ 22.6 µM)	diameter of the inhibition zone (DIZ) [18]: 11 mm; diameter of the inhibition zone (DIZ) [20]: <10 mm; MIC [21]: 12.5 µg/mL (≈ 28.3 µM); diameter of the inhibition zone (DIZ) [22]: 11 mm; MIC [23]: 12.5 µg/mL (≈ 28.3 µM); diameter of the inhibition zone (DIZ) [24]: <10 mm; MIC [26]: 25 µg/mL (≈ 56.5 µM)
Cc1[nH]c2ccc(OC(F)(F)F)cc2c1CCCNC(=O)CCc1c[nH]c2ccc(Cl)cc12	6.25 µg/mL (≈ 13.1 µM)	10 µg/mL (≈ 20.9 µM)	16 mm	6.25 µg/mL (≈ 13.1 µM)	10 µg/mL (≈ 20.9 µM)	6.25 µg/mL (≈ 13.1 µM)	2.5 µg/mL (≈ 5.23 µM)	16 mm	16 mm	6.25 µg/mL (≈ 13.1 µM)	16 mm	6.25 µg/mL (≈ 13.1 µM)	10 µg/mL (≈ 20.9 µM)	16 mm	6.25 µg/mL (≈ 13.1 µM)	16 mm	6.25 µg/mL (≈ 13.1 µM)	10 µg/mL (≈ 20.9 µM)	<90%	10 µg/mL (≈ 20.9 µM)	diameter of the inhibition zone (DIZ) [18]: 16 mm; diameter of the inhibition zone (DIZ) [20]: 16 mm; MIC [21]: 6.25 µg/mL (≈ 13.1 µM); diameter of the inhibition zone (DIZ) [22]: 16 mm; MIC [23]: 6.25 µg/mL (≈ 13.1 µM); diameter of the inhibition zone (DIZ) [24]: 16 mm; MIC [26]: 6.25 µg/mL (≈ 13.1 µM)
Cn1cc(CCC(=O)NCCCc2c[nH]c3ccc(OC(F)(F)F)cc23)c2cc(Cl)ccc21	12.5 µg/mL (≈ 26.2 µM)	10 µg/mL (≈ 20.9 µM)	11 mm	6.25 µg/mL (≈ 13.1 µM)	10 µg/mL (≈ 20.9 µM)	6.25 µg/mL (≈ 13.1 µM)	0.625 µg/mL (≈ 1.31 µM)	16 mm	<10 mm	12.5 µg/mL (≈ 26.2 µM)	11 mm	12.5 µg/mL (≈ 26.2 µM)	10 µg/mL (≈ 20.9 µM)	<10 mm	6.25 µg/mL (≈ 13.1 µM)	11 mm	12.5 µg/mL (≈ 26.2 µM)	10 µg/mL (≈ 20.9 µM)	95%	1 µg/mL (≈ 2.09 µM)	diameter of the inhibition zone (DIZ) [18]: 16 mm; diameter of the inhibition zone (DIZ) [20]: 11 mm; MIC [21]: 25 µg/mL (≈ 52.3 µM); diameter of the inhibition zone (DIZ) [22]: 11 mm; MIC [23]: 12.5 µg/mL (≈ 26.2 µM); diameter of the inhibition zone (DIZ) [24]: 16 mm; MIC [26]: 25 µg/mL (≈ 52.3 µM)
Cn1cc(CCC(=O)NCCCc2c[nH]c3ccc(Cl)cc23)c2cc(Cl)ccc21	6.25 µg/mL (≈ 14.6 µM)	10 µg/mL (≈ 23.3 µM)	16 mm	12.5 µg/mL (≈ 29.2 µM)	–	6.25 µg/mL (≈ 14.6 µM)	2.5 µg/mL (≈ 5.84 µM)	11 mm	<10 mm	25 µg/mL (≈ 58.4 µM)	<10 mm	6.25 µg/mL (≈ 14.6 µM)	2.5 µg/mL (≈ 5.84 µM)	11 mm	6.25 µg/mL (≈ 14.6 µM)	16 mm	6.25 µg/mL (≈ 14.6 µM)	> 100 µg/mL	<90%	10 µg/mL (≈ 23.3 µM)	diameter of the inhibition zone (DIZ) [18]: 16 mm; diameter of the inhibition zone (DIZ) [20]: 16 mm; MIC [21]: 12.5 µg/mL (≈ 29.2 µM); diameter of the inhibition zone (DIZ) [22]: <10 mm; MIC [23]: 25 µg/mL (≈ 58.4 µM); diameter of the inhibition zone (DIZ) [24]: 16 mm; MIC [26]: 25 µg/mL (≈ 58.4 µM)
Cn1cc(CCCNC(=O)CCc2c[nH]c3ccc(Cl)cc23)c2cc(OC(F)(F)F)ccc21	6.25 µg/mL (≈ 13.1 µM)	10 µg/mL (≈ 20.9 µM)	16 mm	6.25 µg/mL (≈ 13.1 µM)	10 µg/mL (≈ 20.9 µM)	25 µg/mL (≈ 52.3 µM)	0.625 µg/mL (≈ 1.31 µM)	16 mm	11 mm	25 µg/mL (≈ 52.3 µM)	<10 mm	6.25 µg/mL (≈ 13.1 µM)	10 µg/mL (≈ 20.9 µM)	<10 mm	6.25 µg/mL (≈ 13.1 µM)	16 mm	6.25 µg/mL (≈ 13.1 µM)	10 µg/mL (≈ 20.9 µM)	95%	1 µg/mL (≈ 2.09 µM)	diameter of the inhibition zone (DIZ) [18]: 16 mm; diameter of the inhibition zone (DIZ) [20]: 16 mm; MIC [21]: 25 µg/mL (≈ 52.3 µM); diameter of the inhibition zone (DIZ) [22]: <10 mm; MIC [23]: 25 µg/mL (≈ 52.3 µM); diameter of the inhibition zone (DIZ) [24]: <10 mm; MIC [26]: 12.5 µg/mL (≈ 26.2 µM)
Cn1cc(CNC(=O)CCc2c[nH]c3ccc(Cl)cc23)c2cc(Cl)ccc21	25 µg/mL (≈ 62.5 µM)	10 µg/mL (≈ 25 µM)	11 mm	6.25 µg/mL (≈ 15.6 µM)	10 µg/mL (≈ 25 µM)	6.25 µg/mL (≈ 15.6 µM)	1.25 µg/mL (≈ 3.12 µM)	16 mm	16 mm	6.25 µg/mL (≈ 15.6 µM)	16 mm	12.5 µg/mL (≈ 31.2 µM)	–	16 mm	12.5 µg/mL (≈ 31.2 µM)	<10 mm	12.5 µg/mL (≈ 31.2 µM)	10 µg/mL (≈ 25 µM)	90%	> 100 µg/mL	diameter of the inhibition zone (DIZ) [18]: 11 mm; diameter of the inhibition zone (DIZ) [20]: 11 mm; MIC [21]: 6.25 µg/mL (≈ 15.6 µM); diameter of the inhibition zone (DIZ) [22]: 16 mm; MIC [23]: 6.25 µg/mL (≈ 15.6 µM); diameter of the inhibition zone (DIZ) [24]: 16 mm; MIC [26]: 6.25 µg/mL (≈ 15.6 µM)
NNC(=O)c1ccncc1 [ISONIAZID]	–	50 µg/mL (≈ 365 µM)	–	–	12.5 µg/mL (≈ 91.1 µM)	–	0.7 µg/mL (≈ 5.1 µM)	–	–	–	–	–	50 µg/mL (≈ 365 µM)	–	–	–	–	12.5 µg/mL (≈ 91.1 µM)	95%	0.7 µg/mL (≈ 5.1 µM)	–
CO[C@H]1/C=C/O[C@@]2(C)Oc3c(C)c(O)c4c(O)c(c(/C=N/N5CCN(C)CC5)c(O)c4c3C2=O)NC(=O)/C(C)=C\C=C\[C@H](C)[C@H](O)[C@@H](C)[C@@H](O)[C@@H](C)[C@H](OC(C)=O)[C@@H]1C [RIFAMPIN]	–	1.5 µg/mL (≈ 1.82 µM)	–	–	1.5 µg/mL (≈ 1.82 µM)	–	0.5 µg/mL (≈ 0.608 µM)	–	–	–	–	–	1.5 µg/mL (≈ 1.82 µM)	–	–	–	–	1.5 µg/mL (≈ 1.82 µM)	95%	0.5 µg/mL (≈ 0.608 µM)	–
